The target in series [1] is T1, TOP (Homo sapiens, UniProt P52888).
T1 construct: was introduced into pTracer-transfected Kb-Cos7 cells; endogenous in cells; host or cells: Kb-Cos7 cells transfected with pTracer (GFP) only
The series can be described thus: Generation of SIINFEKL+Kb complexes in Kb-Cos7 cells loaded with ovalbumin and TOP inhibitor by hypertonic lysis of pinosomes (25D1 staining, flow cytometry). The series is classed as cell-based. As to conditions: cells transfected with TOP. The source says:
(§1) To test whether TOP can influence antigen presentation, the effects of transiently overexpressing TOP in vivo on the presentation of SIINFEKL (SEQ ID NO:5) peptide produced in the cytoplasm from a synthetic minigene were studied. In one set of experiments, expression vectors encoding TOP and SIINFEKL were transiently co-transfected into Kbexpressing COS7 cells. The presentation of SIINFEKL on MHC class I Kb molecules was detected by staining with a SIlNFEKL+Kb-specific monoclonal antibody (25D1) (Porgador et al., 1997, Immunity. 6:715-726) and quantified by flow cytometry. Briefly, Kb-Cos7 cells were co-transfected with a SIINFEKL minigene in pCDNA3 and a pTracer plasmid encoding green fluorescence protein (GFP), GFP+human TOP or GFP+ORP 150 (a control protein) using FuGENE™ (Roche Applied Science). After 48 hours, the cells were stained with an anti-SIINFEKL+Kb specific nAb (25D1) (Porgador et al., 1997, supra) followed by pbycoerythrin-conjugated anti-immunoglobulin antibody and fluorescence was measured by flow fluorocytometry. […]
(§2) The data of FIG. 3C were generated in experiments in which ovalbumin (40 mg/ml) admixed with either the TOP inhibitor cPP-AAF-pAB (1 mM) or vehicle (DMSO) was introduced into pTracer-transfected Kb-Cos7 cells. After two hours the presence of SIINFEKL+Kb complexes was determined by immunofluorescence as described for FIG. 1A (supra). […]
(In general: Flow cytometry measures light scatter and fluorescence of single cells or particles in a stream.)

In series [2] the test system is TOP. The description is as above. Type of series: cell-based. As to conditions: Kb-Cos7 cells not overexpressing TOP; ovalbumin 40 mg/ml, inhibitor 1 mM, two hours; FIG. 3C.
Excerpt: as §1, §2

For series [3], the system named is living cells. The settings on record: cited from earlier work.
The target of series [4] is pure PSA (Homo sapiens, UniProt P55786). The series can be described thus: Degradation of FAPGNYPAL by pure PSA. As to conditions: PSA at concentrations similar to those found in HeLa cells. Type of series: biochemical.
Sequence of pure PSA (P55786 whole entry): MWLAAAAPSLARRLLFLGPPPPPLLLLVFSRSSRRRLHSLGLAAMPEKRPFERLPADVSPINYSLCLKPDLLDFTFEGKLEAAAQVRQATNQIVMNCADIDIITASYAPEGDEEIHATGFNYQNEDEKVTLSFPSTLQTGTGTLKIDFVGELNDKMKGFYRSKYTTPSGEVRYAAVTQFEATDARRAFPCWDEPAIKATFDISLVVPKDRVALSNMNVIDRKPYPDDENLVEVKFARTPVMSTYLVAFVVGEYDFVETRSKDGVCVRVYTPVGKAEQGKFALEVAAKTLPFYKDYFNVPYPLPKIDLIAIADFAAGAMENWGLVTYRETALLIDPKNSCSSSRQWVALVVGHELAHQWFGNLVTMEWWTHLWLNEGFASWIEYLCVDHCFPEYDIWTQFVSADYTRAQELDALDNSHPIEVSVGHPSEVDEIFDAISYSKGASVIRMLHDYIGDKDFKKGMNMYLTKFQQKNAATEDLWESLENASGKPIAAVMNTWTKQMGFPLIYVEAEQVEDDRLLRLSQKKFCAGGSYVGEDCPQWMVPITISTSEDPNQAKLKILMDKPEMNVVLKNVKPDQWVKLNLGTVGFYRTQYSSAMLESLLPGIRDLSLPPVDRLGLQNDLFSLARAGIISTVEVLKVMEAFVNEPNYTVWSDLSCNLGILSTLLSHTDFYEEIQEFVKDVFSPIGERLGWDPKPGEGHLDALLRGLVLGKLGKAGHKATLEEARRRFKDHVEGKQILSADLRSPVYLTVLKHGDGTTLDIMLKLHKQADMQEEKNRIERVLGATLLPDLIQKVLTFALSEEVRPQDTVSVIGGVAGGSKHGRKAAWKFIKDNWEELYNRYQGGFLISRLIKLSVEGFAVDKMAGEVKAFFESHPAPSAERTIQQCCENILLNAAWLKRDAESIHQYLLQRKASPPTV

T1 sequence (P52888 whole entry): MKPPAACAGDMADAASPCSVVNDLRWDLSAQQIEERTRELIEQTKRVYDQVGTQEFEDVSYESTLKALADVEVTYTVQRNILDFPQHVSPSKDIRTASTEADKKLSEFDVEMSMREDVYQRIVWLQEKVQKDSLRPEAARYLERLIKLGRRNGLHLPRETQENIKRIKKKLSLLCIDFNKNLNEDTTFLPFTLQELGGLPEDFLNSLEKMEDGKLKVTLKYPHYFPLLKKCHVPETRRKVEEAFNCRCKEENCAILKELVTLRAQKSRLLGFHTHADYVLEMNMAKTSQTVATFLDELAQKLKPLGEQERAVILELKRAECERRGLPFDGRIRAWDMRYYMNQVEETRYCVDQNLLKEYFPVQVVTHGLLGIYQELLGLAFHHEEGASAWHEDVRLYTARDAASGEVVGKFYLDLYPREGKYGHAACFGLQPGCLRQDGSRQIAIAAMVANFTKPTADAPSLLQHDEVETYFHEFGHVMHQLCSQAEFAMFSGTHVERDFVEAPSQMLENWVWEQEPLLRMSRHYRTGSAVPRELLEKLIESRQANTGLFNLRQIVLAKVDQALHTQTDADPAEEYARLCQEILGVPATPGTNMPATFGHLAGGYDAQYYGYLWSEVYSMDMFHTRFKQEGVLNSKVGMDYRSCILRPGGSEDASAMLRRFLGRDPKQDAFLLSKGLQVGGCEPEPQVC

Turning to “N-(1(RS)-carboxy-3-phenylpropyl)-Ala-Ala-Tyr-p-aminobenzoate [cPP-AAF-PAB]”, the “generation of SIINFEKL-Kb complexes (MHC class I presentation)” value in series [1] and in series [2] was “enhanced” in each case. Also, the “entry into living cells / cell cytosol” value in series [3] is “does not enter living cells”.
Turning to “FAPGNYPAL [antigenic peptide, Sendai Virus NP, residues 324-332]”, in series [4], the “susceptibility to degradation by pure PSA” value is given as “particularly susceptible to degradation”.
